Measured values as given in patent US20070243598A1, “NOVEL PSEUDONOCARDIA SP. RMRC PAH4 AND A PROCESS FOR BIOCONVERTING COMPACTIN INTO PRAVASTATIN USING THE SAME” (CHINESE PETROLEUM CORPORATION, priority 2004, published 2007).

System: Pseudonocardia sp. RMRC PAH4
Assay: Tolerance of Pseudonocardia sp. RMRC PAH4 against compactin sodium
Assay type: cell-based
Settings: added after 48 hours on shaker in YMG liquid medium, 220 rpm, 28° C.; conversion rate could not exceed 30%
Method: The strain was inoculated in the culture medium consisting of casein hydrolysate 0.05-0.2%; yeast extract 0.05-0.2%; soluble starch 0.5-2.0%; KH2PO4 0.01-0.08%; MgSO4.7H2O 0.05-0.2%; Pravastatin sodium 0.005-0.01%; and Bacto agar 2.0%, pH 7.0, and incubated under 28° C. for 7-20 days.
The above inoculum culture was incubated in compactin sodium-containing YMG liquid medium consisting of yeast extract 0.1-1.0%; malto extract 0.1-1.0%; peptone 0.1-1.0%; glucose 0.5-2.0%; cotton seed extract (Pharmamedia) 0.5-0.5%; KH2PO4 0.1-0.5%; Na2HPO4 0.3-0.7%; MgSO4.7H2O 0.01-0.05%; FeSO4.7H2O 0.001-0.01%; MnSO4.H2O 0.001-0.01%; CaCl2 0.001-0.01%; compactin sodium 0.002-0.01%; pH 6.5, on a shaker, at 220 rpm, under 28° C.
After incubating on shaker as described above for 48 hours, 300-3,000 μg/ml of compactin sodium as added and continued the incubation under same conditions. Utilization rate of compactin sodium and conversion rate of Pravastatin sodium were analyzed by HPLC at an interval of 24 hours.

`CC[C@H](C)C(=O)O[C@H]1CCC=C2C=C[C@H](C)[C@H](CCCC[C@@H](O)CC(=O)O)[C@H]21` [compactin sodium] was tested, and the “amount of compactin sodium added above which growth of the bacteria becomes considerably slow” value was “more than 2,500 μg/ml”.
